Laboratory results from patent US4250255A, “Assay method for isoenzyme activity” (Eastman Kodak Company, priority 1977, dated 1981).
Like-named read-outs stand apart in the source and are kept apart here.

Legend:
LD2 = molecular target: T1, LD2 (Sus scrofa, UniProt P00336+P00339); assay: LDH activity assay with amphiphile, LDH isoenzymes; type: biochemical, porcine
T1 construct: porcine LDH, LD1, LD2, LD3, LD4 and LD5 in the form of ammonium sulfate suspensions
Procedure: (§1) 3. Beef heart LDH (Sigma Chemical Co., Type III), rabbit muscle LDH (Sigma Chemical Co., Type V) and porcine LDH, LD1, LD2, LD3, LD4 and LD5 in the form of ammonium sulfate suspensions were used for these examples.
(§2) The assay for LDH activity in both the absence and presence of surfactant was conducted as follows. […] The resulting solution contains approximately 5 units/ml. […] To the equilibrated solution […]. of the enzyme solution was added, and the cuvette was rapidly shaken while covering the top of the cuvette with a small piece of Parafilm® and placed back into the spectrophotometer.
(§3) Amphiphile solutions were prepared by weighing out a given amount of amphiphile, e.g., 100 mg, and preparing a stock solution in 30 mM sodium phosphate buffer in 100 ml. volumetric flask. Solutions of lower amphiphile concentration were prepared by making the appropriate dilutions from the stock solution.

LD3 = molecular target: T2, LD3 (Sus scrofa, UniProt P00336+P00339); assay: LDH activity assay with amphiphile, LDH isoenzymes; type: biochemical, porcine
T2 construct: porcine LDH, LD1, LD2, LD3, LD4 and LD5 in the form of ammonium sulfate suspensions
Procedure: as §1, §2, §3

LD4 = molecular target: T3, LD4 (Sus scrofa, UniProt P00336+P00339); assay: LDH activity assay with amphiphile, LDH isoenzymes; type: biochemical, porcine
T3 construct: porcine LDH, LD1, LD2, LD3, LD4 and LD5 in the form of ammonium sulfate suspensions
Procedure: as §1, §2, §3

LD1 and LD5 = assay: Screening of amphiphiles for ability to discriminate between LD1 and LD5; details: for Effectiveness (LDH isoenzyme inhibition specificity, LD1 vs LD5): range of amphiphile concentrations, relative activity vs buffer
Procedure: A series of solutions was prepared covering a range of concentrations for each amphiphile to be tested. The activities of both LD1 and LD5 were determined in the presence of the various concentrations of each amphiphile and compared with enzyme activities in buffer (relative activity).
Enzyme activity in the presence and absence of amphiphile was measured by the following procedure: Stock solutions of NADH (4 mM) and pyruvate (40 mM) were prepared daily in 30 mM sodium phosphate buffer, pH 7.4. Enzyme solutions were prepared daily by withdrawing 5 μl of the stock enzyme solutions with a Hamilton syringe and diluting to 5 ml with 30 mM sodium phosphate buffer. (The resulting solution contains approximately 5 U of enzyme/ml.) The enzyme assay was run by pipetting 2.7 ml of buffer or buffer surfactant solution into a 10 mm path length quartz cuvette, and 100 μl each of NADH and pyruvate stock solutions were added. […] Enzyme solution was added with good mixing; the absorbance decrease at 340 nm was measured as a function of time. The rate of the reaction was determined by measuring the slope of the initial absorbance decrease, i.e., within the first 50 seconds of the reaction.

LD1 [1] = molecular target: T4, LD1 (Sus scrofa, UniProt P00336); assay: LDH activity assay with amphiphile, LDH isoenzymes; type: biochemical, porcine; design: porcine LDH, LD1, LD2, LD3, LD4 and LD5 in the form of ammonium sulfate suspensions
Procedure: as §1, §2, §3

LD5 [2] = molecular target: LD5 (Sus scrofa, UniProt P00339); assay: LDH activity assay with amphiphile, LDH isoenzymes; type: biochemical, porcine; design: LD5 from two different species, i.e., rabbit muscle and hog muscle; from tissue; host or cells: hog muscle
Procedure: as §1, §2, §3

LD1 [3] = assay: LDH activity assay with amphiphile, LDH isoenzymes; type: biochemical, porcine
Procedure: as §1, §2, §3

LD5 [4] = assay: LDH activity assay with amphiphile, LDH isoenzymes; type: biochemical, porcine; details: even at 10 mM; LD5 from rabbit and hog show almost identical profiles; FIG. 5
Procedure: as §1, §2, §3

LD1 [5] = molecular target: T4, LD1; assay: Effect of cationic amphiphiles on the activity of LDH isoenzymes (Table 1); type: biochemical; details: 30 mM sodium phosphate buffer pH 7.4, 25° C.; read-out: Amphiphile conc. Req'd for 50% Inactivation of Specified Isoenzyme (LD1)
Procedure: as §2, §3
A number of cationic amphiphiles were investigated for specific inactivation of LD1 in the presence of LD5 and these compounds are listed in Table 1.

human LD1 = molecular target: T5, human LD1 (Homo sapiens, UniProt P07195); assay: LDH assay with human enzyme-containing serum; type: biochemical; details: 2.5 mM CTAB; pH 7.8; 14% protein
T5 construct: A specific human LDH isoenzyme (obtained from liver homogenate or red blood cell); from tissue; host or cells: human liver homogenate or red blood cell
Procedure: as §2
(§4) Pooled human serum, kept frozen until ready for use, was raised to pH 11.5 until all LDH activity was destroyed. The pH was then adjusted to 7.4 and the serum was again assayed for LDH activity to ensure that no LDH had been reactivated. A specific human LDH isoenzyme (obtained from liver homogenate or red blood cell) was then added to the pool to give an enzyme concentration of ~100 U/l. The spiked serum samples were refrigerated between uses and respiked when necessary. Fresh serum was prepared weekly.
(§5) 8. The assay method used is the same as described above for Examples 1-12, except that the test samples consisted of 25-30 μl of serum instead of 100 μl of aqueous enzyme solution.

human LD2 = molecular target: T6, human LD2 (Homo sapiens, UniProt P00338+P07195); assay: LDH assay with human enzyme-containing serum; type: biochemical; details: 2.5 mM CTAB; pH 7.8; 14% protein
T6 construct: A specific human LDH isoenzyme (obtained from liver homogenate or red blood cell); from tissue; host or cells: human liver homogenate or red blood cell
Procedure: as §2, §4, §5

human LD4 = molecular target: T7, human LD4 (Homo sapiens, UniProt P00338+P07195); assay: LDH assay with human enzyme-containing serum; type: biochemical
T7 construct: A specific human LDH isoenzyme (obtained from liver homogenate or red blood cell); from tissue; host or cells: human liver homogenate or red blood cell
Procedure: as §2, §4, §5

human LD5 [6] = molecular target: T8, human LD5 (Homo sapiens, UniProt P00338); assay: LDH assay with human enzyme-containing serum; type: biochemical
T8 construct: A specific human LDH isoenzyme (obtained from liver homogenate or red blood cell); from tissue; host or cells: human liver homogenate or red blood cell
Procedure: as §2, §4, §5

human LD5 [7] = assay: LDH assay with human enzyme-containing serum; type: biochemical; details: pH 7.4; FIG. 15
Procedure: as §2, §4, §5

human LD1, LD2 and LD3 = assay: LDH assay with human serum sample containing LD1, LD2 and LD3; type: biochemical; details: CTAB 0.002-0.004 M; 25 μl serum; FIG. 13
Procedure: as §2, §4, §5

cMDH = molecular target: T9, cMDH (Sus scrofa, UniProt P11708); assay: Assay for MDH (oxalacetic acid + NADH, 340 nm); type: biochemical, porcine
T9 construct: Porcine cMDH and mMDH were used as ammonium sulfate suspensions
Procedure: (§6) 1. Porcine cMDH and mMDH were used as ammonium sulfate suspensions. Typically, 5 μl of the enzyme stock solutions were diluted to 10 ml with 30 mM phosphate buffer, pH 7.4, prior to use. The resulting enzyme solutions were stored in ice water; 100 μl aliquots were withdrawn for assay except where another amount is specified.
(§7) The assay is based on conversion of oxalacetic acid to malate in the presence of NADH and MDH. The assay was made [formula] in 30 mM phosphate buffer, at ambient temperature, with and without appropriate surfactant concentrations, and contained 0.17 mM OAA and 0.13 mM NADH. The reaction was followed by monitoring the decrease in absorbance at 340 nm using either a Beckman 25 or Cary 118 spectrophotometer. The OAA solutions were stored over ice to prevent hydrolysis to pyruvic acid.

mMDH = molecular target: T10, mMDH (Sus scrofa, UniProt P00346); assay: Assay for MDH (oxalacetic acid + NADH, 340 nm); type: biochemical, porcine
T10 construct: Porcine cMDH and mMDH were used as ammonium sulfate suspensions
T10 sequence (P00346 25-338): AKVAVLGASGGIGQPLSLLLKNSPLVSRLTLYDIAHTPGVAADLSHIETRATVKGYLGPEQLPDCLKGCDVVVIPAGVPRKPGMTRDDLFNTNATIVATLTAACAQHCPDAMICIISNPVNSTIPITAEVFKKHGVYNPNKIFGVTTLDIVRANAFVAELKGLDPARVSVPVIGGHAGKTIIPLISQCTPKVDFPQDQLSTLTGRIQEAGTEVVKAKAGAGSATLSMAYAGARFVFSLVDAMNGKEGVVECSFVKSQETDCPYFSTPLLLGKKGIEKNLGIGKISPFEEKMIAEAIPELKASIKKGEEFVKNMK
Procedure: as §6, §7

[8] = system: isoenzymes of creatinine phosphokinase (CPK); assay: Conventional coupled CPK assay (hexokinase, glucose-6-phosphate dehydrogenase); type: biochemical; details: conventional assay with coupled reactions, hexokinase and glucose-6-phosphate dehydrogenase
Excerpt: Of course, the particular amphiphile used and the concentration at which it is used will depend upon the particular isoenzyme being assayed. Not every amphiphile will have a discriminatory effect on the activity of isoenzymes in each isoenzyme system.

[9] = molecular target: T11, LDH isoenzymes (LD5 in the presence of LD1) (Oryctolagus cuniculus, UniProt P13491); assay: Anionic amphiphiles tested for specific interaction with LDH isoenzymes (Table 2); type: biochemical
T11 construct: LD1 (LDHB tetramer) only as comparison
Procedure: as §2, §3
A number of anionic amphiphiles were investigated for specific inactivation of LD5 in the presence of LD1 and these compounds are listed in Table 2.

[10] = 2.5 mM CTAB, pH 7.8, 14% protein
[11] = rate measurements after 2 minutes, FIG. 18

CCCCCCCCCCCCCCCC(=O)NCCC[N+](C)(C)CCO.[Cl-] [N-β-hydroxyethyl-N,N-dimethyl-N-3-palmitamidopropylammonium chloride]
effect on LD2 activity (LD2; FIG. 11): inactivated mostly | effect on LD3 activity (LD3; FIG. 11): inactivated mostly | retention of LD4 activity (LD4; FIG. 11): ~ 60% | Effectiveness (LDH isoenzyme inhibition specificity, LD1 vs LD5) (LD1 and LD5): ++ | effect on LD1 activity (LD1 [1]; FIG. 11): inactivated mostly | retention of LD5 activity (LD5 [2]; FIG. 11): 90%

CCCCCCCCCCCCCCCC[N+](C)(C)C.[Br-] [CTAB, hexadecyltrimethylammonium bromide]
LD1 susceptibility to inactivation at high surfactant concentrations (LD1 [3]; about 10 mM CTAB, FIG. 5): less susceptible to inactivation | control LD5 activity lost in CTAB solutions (LD5 [4]): No more than 30% | IC50 (LD1 [5]): 900 µM | human LD1 activity (human LD1): completely inactivated | human LD2 activity (human LD2): completely inactivated | human LD4 activity (human LD4; [10]): fully active | human LD4 activity (human LD4; 3 mM CTAB in 14% protein, pH 7.75-7.85, 30 μl serum): completely inactivated | human LD5 activity (human LD5 [6]; [10]): fully active | retained activity of human LD5 (human LD5 [6]; CTAB 0.002-0.004 M, 25 μl serum, FIG. 13): at least 60% | activity at 3000 µM (human LD5 [6]; read-out: human LD5 activity): > 100% | discrimination between human LD5 and LD4 (human LD5 [7]): inadequate discrimination | activity of human serum sample containing LD1, LD2 and LD3 (human LD1, LD2 and LD3): completely inactivated | cMDH activity (cMDH; 0.3 mM CTAB, initial reaction rates, FIG. 16): essentially completely inactivated | cMDH inactivation with increased exposure time (cMDH; [11]): more effectively inactivates cMDH | remaining activity at 300 µM (mMDH; pH 7.4, 0.3 mM CTAB, initial reaction rates, FIG. 16, read-out: mMDH activity relative to a buffer control): 100% | effect on mMDH with increased exposure time (mMDH; [11]): no effect | discriminatory effect on the activities of the isoenzymes of CPK [8]: do not appear to have any discriminatory effect | discrimination of LDH isoenzymes (LD1 and LD5): excellent discriminators | activity at 275 µM (LD5 [2]; pH 7.4, read-out: activity of LD5 in CTAB, % of the buffer value): 90 to 95%

CCCCCCCCCCCCOS(=O)(=O)[O-].[Na+] [SDS, sodium dodecylsulfate]
activity at 3500 µM (LD2; pH 7.4, read-out: LD2 activity): 0% | remaining activity at 1500 µM (LD2; pH 7.4, read-out: LD2 activity remaining): 65% | remaining activity at 1500 µM (LD3; pH 7.4, read-out: LD3 activity remaining): 50% | LD4 activity (LD4; 1.5 mM SDS, FIG. 9): nil | Interaction (specific inactivation of LD5 in the presence of LD1) [9]: useful positive results | Interaction (specific inactivation of LD5 in the presence of LD1) ([9]; listed as sodium dodecylsulfate): specific | Effectiveness (LDH isoenzyme inhibition specificity, LD1 vs LD5) (LD1 and LD5): ++ | remaining activity at 1500 µM (LD1 [1]; pH 7.4, read-out: LD1 activity remaining): 95% | remaining activity at 3500 µM (LD1 [1]; pH 7.4, read-out: LD1 activity, % of buffer control): 78% | LD5 activity (LD5 [2]; 1.5 mM SDS, FIG. 9): nil

Heparin
inactivation of LD1 compared with LD5 (LD1 [3]; FIG. 12): LD1 is more inactivated than LD5 | Effectiveness (LDH isoenzyme inhibition specificity, LD1 vs LD5) (LD1 and LD5): +
